Laboratory results from patent US20230348358A1, “Serotonin Receptor Modulators” (Northeastern University, priority 2020, published 2023).
“Also recorded” adds a separate entry of the source. Like-named read-outs stand apart in the source and are kept apart here.

Legend:
[1] = tested on: C57BI/6J mice; test: MK-801 elicited stereotypic rotations and hyperlocomotion; format: in vivo, mouse
Excerpt: Regarding glutamate neurotransmission in stereotypy, the NMDA receptor antagonist, MK-801, characteristically elicits stereotypic rotations that appear to mimic monogenetic stereotypy observed in Fmr1 KO mice. Furthermore, mutations and autoantibodies of the NMDA glutamate receptor that decrease its function are causally linked to ASD, intellectual disabilities, and psychiatric symptoms in humans.

[2] = molecular target: T1, 5HT2B receptors (Homo sapiens, UniProt P41595); test: Affinity at 5HT2B receptors; format: binding
T1 construct: host or cells: HEK293, transient
T1 sequence (P41595 whole entry): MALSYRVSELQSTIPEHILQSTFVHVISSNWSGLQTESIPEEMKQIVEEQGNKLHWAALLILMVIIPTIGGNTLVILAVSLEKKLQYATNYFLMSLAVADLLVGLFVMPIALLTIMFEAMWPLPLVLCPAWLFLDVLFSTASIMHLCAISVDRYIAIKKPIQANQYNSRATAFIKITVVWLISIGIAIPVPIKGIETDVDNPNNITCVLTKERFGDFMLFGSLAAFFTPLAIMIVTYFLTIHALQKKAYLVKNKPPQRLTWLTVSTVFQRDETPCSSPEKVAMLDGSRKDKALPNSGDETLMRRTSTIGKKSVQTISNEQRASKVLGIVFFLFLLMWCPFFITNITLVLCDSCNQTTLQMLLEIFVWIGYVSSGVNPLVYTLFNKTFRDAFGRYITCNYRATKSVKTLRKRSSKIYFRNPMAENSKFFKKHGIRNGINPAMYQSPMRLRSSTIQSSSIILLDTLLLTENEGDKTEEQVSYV

[3] = molecular target: T2, 5HT7 (Homo sapiens, UniProt P34969); test: 5HT7 function, Gs-cAMP signaling (HEK293 cells); format: cell-based; design: ATCC CRL-1573 (cells); conditions: for Function at 5HT7: cAMP signaling, HCl
T2 sequence (P34969 whole entry): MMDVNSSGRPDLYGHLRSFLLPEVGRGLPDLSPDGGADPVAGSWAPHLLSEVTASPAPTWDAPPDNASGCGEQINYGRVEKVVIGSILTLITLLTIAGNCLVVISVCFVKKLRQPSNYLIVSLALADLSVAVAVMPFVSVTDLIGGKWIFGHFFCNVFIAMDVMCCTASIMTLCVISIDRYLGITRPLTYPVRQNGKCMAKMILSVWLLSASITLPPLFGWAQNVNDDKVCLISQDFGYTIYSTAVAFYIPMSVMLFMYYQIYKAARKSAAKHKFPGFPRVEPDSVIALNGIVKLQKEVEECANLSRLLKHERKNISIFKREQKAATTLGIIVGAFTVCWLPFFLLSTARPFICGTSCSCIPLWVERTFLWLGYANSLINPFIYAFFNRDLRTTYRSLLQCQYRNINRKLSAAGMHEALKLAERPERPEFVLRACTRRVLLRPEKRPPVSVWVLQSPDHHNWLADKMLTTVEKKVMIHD
Excerpt: It is certain that the C(5) substituent impacts function. […] In FIG. 3, results of measured (S)-5-PAT scaffold yields with various function as 5HT7 ligands are compared with AS-19 and clozapine.

[4] = tested on: C58/J mice; test: Idiopathic stereotypic jumping; format: in vivo, mouse; conditions: dose-dependent; listed as (2S)-5-FPT, HCl
[5] = tested on: C57BI/6J mice; test: d-Amphetamine (AMP)-elicited hyperlocomotion; format: in vivo, mouse; conditions: 5.6 mg/kg; listed as (2S)-5-FPT, HCl
[6] = molecular target: T3, 5HT1A (Homo sapiens, UniProt P08908); test: 5HT1A function, Gαi cAMP signaling (CHO cells); format: cell-based
T3 sequence (P08908 1-422): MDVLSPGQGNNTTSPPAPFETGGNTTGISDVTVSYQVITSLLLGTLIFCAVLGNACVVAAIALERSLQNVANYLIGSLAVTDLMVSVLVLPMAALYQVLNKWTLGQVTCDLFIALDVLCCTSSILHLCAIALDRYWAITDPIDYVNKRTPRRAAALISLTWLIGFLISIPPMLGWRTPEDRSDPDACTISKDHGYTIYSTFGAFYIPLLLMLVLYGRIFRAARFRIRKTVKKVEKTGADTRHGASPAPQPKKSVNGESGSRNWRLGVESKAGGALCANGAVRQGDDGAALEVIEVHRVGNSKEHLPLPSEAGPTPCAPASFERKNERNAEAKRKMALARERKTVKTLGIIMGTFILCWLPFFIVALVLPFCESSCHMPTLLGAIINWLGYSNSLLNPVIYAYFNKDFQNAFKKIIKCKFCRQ

[7] = tested on: C57BI/6J mice; test: Social interactions between littermates; format: in vivo, mouse; conditions: 5.6 mg/kg
Excerpt: After behavioral testing was complete, blind scorers categorized mice into two groups based on number of rears and initiated social interactions, and the two groups differentiated vehicle from (2S)-5-FPT-treated mice with 100% accuracy.

[8] = molecular target: T2, 5HT7; test: Affinity (Ki) at 5HT7, HEK293 cells stably expressing 5HT7
[9] = molecular target: T1, 5HT2B receptors; test: 5HT2B functional assays; format: cell-based
[10] = tested on: FVB mice; test: Marble burying; conditions: mouse, in vivo
Description: For measurement of marble burying (FIG. 7), FVB mice were placed individually, for 10 min, in clean boxes (6 in. ×10 in. ×5 in.) containing 18 clear marbles atop fresh home-bedding. Marbles buried (i.e., marbles 50% covered with bedding) were calculated after the test session.

[11] = molecular target: T4, 5HT2A receptors (Homo sapiens, UniProt P28223); test: biochemical; format: binding
T4 construct: host or cells: HEK293, transient
T4 sequence (P28223 whole entry): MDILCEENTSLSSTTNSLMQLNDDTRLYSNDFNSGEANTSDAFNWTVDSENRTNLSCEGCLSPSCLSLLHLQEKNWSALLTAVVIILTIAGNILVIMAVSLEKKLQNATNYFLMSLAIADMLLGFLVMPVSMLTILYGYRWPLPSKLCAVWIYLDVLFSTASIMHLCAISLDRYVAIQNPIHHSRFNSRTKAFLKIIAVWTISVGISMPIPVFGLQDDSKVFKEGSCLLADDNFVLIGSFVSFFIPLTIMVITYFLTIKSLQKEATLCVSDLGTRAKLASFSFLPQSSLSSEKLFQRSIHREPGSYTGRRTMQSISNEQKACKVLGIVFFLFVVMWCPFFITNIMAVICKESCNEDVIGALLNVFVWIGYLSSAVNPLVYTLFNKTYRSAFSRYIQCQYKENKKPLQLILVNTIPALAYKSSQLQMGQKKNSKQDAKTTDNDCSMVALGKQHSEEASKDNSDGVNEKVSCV

[12] = tested on: 50 CNS/peripheral sites; test: NIMH PDSP / NIDA evaluation at 50 CNS/peripheral sites; format: binding
[13] = molecular target: T4, 5HT2A receptors; test: 5-HT2A function in HEK cells over-expressing the receptor; format: cell-based
[14] = Plasma and brain concentrations by LC-MS/MS after systemic administration; format: in vivo, mouse; conditions: for concentration at 30 min / concentration at 60 min / concentration at 90 min: 3.0 mg/kg subcutaneous, mean (SEM); for concentration at 30 min: 30 min after injection; for concentration at 60 min: 60 min after injection; for concentration at 90 min: 90 min after injection
Excerpt: (2S)-5-FPT is neurobehaviorally active after oral administration.

[15] = tested on: Fmr1 knockout and wild-type mice; test: c-Fos immunohistochemistry in brain of wild-type and Fmr1 knockout mice; format: in vivo, mouse; conditions: for c-Fos expression in the inferior colliculus: juvenile Fmr1 knockout mice, 30 seconds 120 dB alarm
Description: Brains are excised and post-fixed overnight in 4% paraformaldehyde, followed by 20% glycerol in TBS for at least 24 hrs. Coronal sections (40 μm) traversing regions of interest then be collected using a Leica CM1950 cryostat, and placed in cold TBS. c-Fos IHC is performed using free-floating IHC methods as have been previously described, but with a new primary antibody. A protocol with the Abcam [2H2] (ab208942) mouse monoclonal antibody has been recently optimized, which has essentially no cross-reactivity. An HRP-conjugated secondary antibody is used for visualization by the biotin-streptavidin technique using 3,3′-diaminobenzidine as the chromagen (Vectastain Elite, Vector Laboratories). Examination of c-Fos expression in frontal cortex, hypothalamus, nucleus accumbens, ventral tegmental area, amygdala, BNST, and hippocampus are conducted.
On the basis of the distribution of FMRP (Fragile X mental retardation protein) in the adult mouse brain and considering neural systems implicated in cognitive and neuropsychiatric symptoms (e.g., anxiety, sensory hypersensitivity, and social deficits) present in FXS and ASD, the effects of FPT were evaluated on c-Fos expression in the hippocampus (CA1, CA3, and dentate gyrus (DG)), the basolateral amygdala (ventral (BLAv), posterior (BLAp), and anterior (BLAa)), the somatosensory (SS) cortex, the hypothalamus (periventricular hypothalamic nucleus, intermediate (PVi), posterior hypothalamic nucleus (PH), and dorsomedial nucleus of the hypothalamus (DMH)), the paraventricular nucleus of the thalamus (PVT), and the ventral retrosplenial area (RSPv). Shown in FIG. 15A and FIG. 15B are results from analyses of c-Fos expression in CA3 and the BLAa, respectively. There were no main effects of the independent variables on c-Fos in CA3; however, there was a significant treatment effect in BLAa (F(1, 12)=14.22, P=0.0027). […] The effect was large, but the difference was not statistically significant (P=0.0871, d=1.54).

[16] = mouse, brain, read-out: Brain concentration
[17] = mouse, plasma, read-out: Plasma concentration

Compound: CN(C)[C@H]1CCc2c(cccc2-c2ccccc2F)C1.Cl [(S)-5-FPT, (2S)-5-(2-fluorophenyl)-N,N-dimethyl-1,2,3,4-tetrahydronaphthalen-2-amine HCl]
- Hyperlocomotion caused by MK-801 ([1]; 5.6 mg/kg): significantly decreased hyperlocomotion
- MK-801 elicited stereotypical rotations ([1]; 5.6 mg/kg): significantly reduced stereotypical rotations
- Stereotypic rotational behavior, compound alone ([1]; without MK-801): neither (2S)-5-FPT nor AMP caused stereotypic rotational behavior
- Ki [2]: 60 nM
- EC50 [3]: 34 nM
- EMAX vs AS-19, 5-HT7 Gs-cAMP signaling [3]: 33%
- Function at 5HT7 [3]: Partial agonist
- Function at 5HT7 ([3]; listed as (2S)—S-FPT): partial agonist
- Stereotypic jumping [4]: potently eliminated stereotypic jumping; also recorded: greater efficacy in this model than the recently reported mGluR5 negative allosteric modulator, GRN-529
- Hyperlocomotion caused by AMP [5]: did not reduce hyperlocomotion caused by AMP; also recorded: did not significantly decrease hyperlocomotion elicited by amphetamine
- Function at 5HT1A [6]: Partial agonist
- Grooming [7]: decreasing grooming
- Number of initiated social interactions ([7]; listed as (2S)-5-FPT, HCl): significantly increases the number of initiated social interactions
- 5-HT7 affinity of (S)-enantiomer over (R)-enantiomer [8]: about 80 times
- Ki ([8]; Affinity Ki ± SEM at 5HT7): 5 nM
- Ki ([8]; read-out: Affinity Ki ± SEM at 5HT7, HCl): 5.3 ± 2 nM
- 5HT2B functional activity [9]: devoid of 5HT2B activity up to 100 μM
- Marble burying (repetitive behavior) [10]: reduces or eliminates repetitive behavior in all models
- Ki [11]: ~900 nM
- Activity at 50 CNS/peripheral sites [12]: without activity at 50 CNS/peripheral sites
- Function at 5-HT2A receptors [13]: weak partial agonist activity
- concentration at 30 min [14, 16]: 1780 ng/g
- concentration at 60 min [14, 16]: 2160 ng/g
- concentration at 90 min [14, 16]: 1460 ng/g
- Blood-brain barrier penetration ([14]; mouse, in vivo): readily crosses the blood-brain barrier
- concentration at 30 min [14, 17]: 114 ng/mL
- concentration at 60 min [14, 17]: 118 ng/mL
- concentration at 90 min [14, 17]: 70 ng/mL
- Peripheral clearance ([14]; plasma levels lower than brain): rapidly cleared in the periphery
- c-Fos expression in CA3 region of the hippocampus ([15]; WT and KO mice): did not significantly increase c-Fos expression
- c-Fos expression in the inferior colliculus [15]: did not affect the number of c-Fos positive cells
- c-Fos expression in the inferior colliculus ([15]; listed as FPT, HCl): no effect
- c-Fos expression in other brain regions ([15]; mouse, in vivo): did not significantly alter c-Fos expression in any other brain region examined
